Counter-ions that a name gives are not always drawn. Like-named read-outs stand apart in the source and are kept apart here.
Key:
[1] = Isothermal titration calorimetry of CD/vinorelbine systems (titration and competition with SGM); format: physicochemical; conditions: 25° C.; for Binding constant / ΔbH° (inclusion enthalpy): vinorelbine-CD, phosphate buffer pH 7.0
Description: In the first instance, 12 CDs and CD derivatives supplied by Captisol® (Kansas, USA), SIGMA® (St Louis, Missouri, USA) and MSD® (New Jersey, USA) and authorized by the FDA or the European Medicines Agency (EMA) were tested (U.S Food and Drug Administration C for DE and. Food Additive Status List. FDA 2022. U.S Food and Drug Administration C for DE and. Select Committee on GRAS Substances 2022. Committee for Human Medicinal Products. Cyclodextrins used as excipients. EMA 2017:16). These were alpha-CD, beta-[…] (methyl-beta-CD, low substitution degree), RAMEB (methyl-beta-CD, higher substitution degree), DIMEB (di-O-methyl-beta-[…] (tri-O-methyl-beta-CD), HP-beta-CD (Hydroxypropyl-beta-CD), SBE-beta-CD (Sulfobutylether-beta-CD), gamma-CD, HP-gamma-CD (Hydroxypropyl-gamma-CD), SBE-gamma-CD (Sulfobutylether-gamma-CD), and sugammadex (SGM). Vinorelbine ditartrate and 50 mM CD solutions were prepared in phosphate buffer pH 7.0. […] To confirm the validity of the chosen stoichiometric model and to increase the accuracy of the thermodynamic parameters, each system was also subjected to a competition experiment with SGM: a solution of 0.5 mM vinorelbine and 10 mM CD titrated against a mixture containing 5 mM SGM and 10 mM CD. […] For all CDs the measurements were performed at 25° C., and the stirring speed was set at 1000 rpm. The resulting heat flux was recorded as a function of time. Prior to data analysis, blank titrations were performed under the same experimental conditions by injecting individual species into buffer, and/or buffer into species and buffer into buffer to determine the heat of dilution. […] The peak area after each injection was obtained by integration of the resulting signal and was expressed as the heat effect per injection. The binding constant (KB), inclusion enthalpy (ΔbH°), and heat capacity (ΔbCp®) were determined using a program developed by Bertaut and Landy involving a global analysis of all binding isotherms obtained for a given system (Bertaut et al. Beilstein J Org Chem 2014:12). A set of thermodynamic parameters was employed for simultaneous nonlinear regression analyses of titration and competition experiments.

[2] = Simulated complexation of vinorelbine in CD using the constants of Table 2; conditions: for CD concentration needed to obtain 95% of complexation: vinorelbine solution at 20 mg/mL (25.7 mmol/L)
Description: To obtain 95% of complexation for a solution at 20 mg/mL (ie 25.7 mmol/L), about 62 mmol/L of SGM or about 71 mmol/L of SBE-beta-CD is needed.
Using the constant values of Table 2, we simulated the complexation of vinorelbine in CD depending on the CD concentration and the final concentration of the vinorelbine solution. To achieve a concentration of 10 mg/mL, approximately 49 mmol/L sugammadex or 58 mmol/L SBE-beta-CD is required to reach 95% of complexation. For 18 mg/mL, approximately 59 mmol/L sugammadex or 68 mmol/L SBE-beta-CD is required to obtain the same complexation rate. […] This indicates a real and strong complexation between vinorelbine and cyclodextrin.

[3] = Haze / precipitate on mixing CD with vinorelbine (2D NMR sample preparation); format: physicochemical
Description: In order to confirm the type of existing interaction (inclusion complex, type of binding) between CD and vinorelbine, a two-dimensional proton NMR was performed on PA (Spitzer et al, J Heterocycl Chem 1995; 32:1255-9), CDs (Schneider et al, Chem Rev 1998; 98:1755-86) and complexes (Vogt et al, Mol Pharm 2012; 9:3357-74; Péan et al, J Chim Phys Phys-Chim Biol 1999; 96:1486-93). Vinorelbine 10 mM stock solution (SS) was prepared by dissolving 21.58 mg of vinorelbine tartrate in 2 mL of deuterated water. CD stock solutions were prepared by dissolving: 21.78 mg SGM in 1 mL heavy water (SS2), 9.73 mg alpha-CD in ImL heavy water (SS3), 21.63 mg SBE-beta-CD in 1 mL heavy water (SS4), and 20.72 mg SBE-gamma-CD in 1 mL heavy water (SS5). These stock solutions were used for the preparation of 10 samples containing vinorelbine, CDs or a mixture of CDs and vinorelbine in deuterated water as shown in Table 1.
A range of vinorelbine-SGM mixtures was performed from 1.5 mmol/L to 5 mmol/L. The haze appears from the mixture of concentration 2.5 mmol/L (sample 10).

EpiOral = format: cell-based; conditions: vinorelbine 20 mg/mL
Description: EpiOral were also used for immunohistology analysis as follow: 3 untreated tissues (negative control, NC), 3 tissues in contact with SBE-β-CD, 3 tissues in contact with vinorelbine at 20 mg/mL concentration, 3 tissues in contact with vinorelbine complexed with SBE-β-CD and 3 tissues in contact with 1% Triton X-100 (positive control, PC). Tissues samples were fixed with 4% PFA and embedded in paraffin. Sections (3 μm thick) were deparaffinized and were stained with Hematoxylin and Eosin (H&E). For immunofluorescence, slides were incubated overnight at 4° C. with primary antibodies diluted in 0.02% Triton X-100-PBS. Primary antibodies were as follows: rabbit anti-Ki67 (ab16667; 1/75; Abcam), mouse anti-E-Cadherin (ab1416; 1/100; Abcam), rabbit anti-Claudin 4 (ab210796; 1/200; Abcam), mouse anti-Cytokeratin 10 (ab9026; 1/100; Abcam), rabbit anti-Cytokeratin 13 (ab97327; 1/50; Abcam) and mouse anti-Cytokeratin 14 (ab7800; 1/50; Abcam). For immunofluorescence detection, secondary antibody Alexa Fluor™ plus 488 goat anti-mouse (1:200; Invitrogen A11029), Alexa Fluor™ plus 488 donkey anti-rabbit (1:200; Invitrogen A21206), Alexa Fluor™ plus 594 goat anti-mouse (1:200; Invitrogen A32742) and Alexa Fluor™ plus 594 goat anti-rabbit (1:200; Invitrogen A32740) were used. […]

[4] = cited from earlier work

Compound	Heat variation / interaction with vinorelbine in titration experiments [1]	Binding constant [1] [L/mol]	ΔbH° (inclusion enthalpy) [1]	CD concentration required to reach 95% of complexation ([2]; vinorelbine 10 mg/mL)	CD concentration required to reach 95% of complexation ([2]; vinorelbine 18 mg/mL)	CD concentration needed to obtain 95% of complexation [2]	Haze / precipitate when mixed with vinorelbine [3]	Concentration of vinorelbine-CD mixture from which haze appears ([3]; range 1.5 to 5 mmol/L, deuterated water) [µM]	Cytotoxicity / TUNEL marking (EpiOral)	E-cadherin marking (tight junctions) (EpiOral; Triton X-100 1%)	Solubility ([4]; aprotic solvents)	Solubility ([4]; methanol)	Solubility ([4]; water)
OC[C@H]1O[C@@H]2O[C@H]3[C@H](O)[C@@H](O)[C@@H](O[C@H]4[C@H](O)[C@@H](O)[C@@H](O[C@H]5[C@H](O)[C@@H](O)[C@@H](O[C@H]6[C@H](O)[C@@H](O)[C@@H](O[C@H]7[C@H](O)[C@@H](O)[C@@H](O[C@H]1[C@H](O)[C@H]2O)O[C@@H]7CO)O[C@@H]6CO)O[C@@H]5CO)O[C@@H]4CO)O[C@@H]3CO [Alpha-CD, alpha-cyclodextrin]	small heat variation	106	-1.185 kcal/mol										
O=C(O)CCSC[C@H]1O[C@@H]2O[C@H]3[C@H](O)[C@@H](O)[C@@H](O[C@H]4[C@H](O)[C@@H](O)[C@@H](O[C@H]5[C@H](O)[C@@H](O)[C@@H](O[C@H]6[C@H](O)[C@@H](O)[C@@H](O[C@H]7[C@H](O)[C@@H](O)[C@@H](O[C@H]8[C@H](O)[C@@H](O)[C@@H](O[C@H]9[C@H](O)[C@@H](O)[C@@H](O[C@H]1[C@H](O)[C@H]2O)O[C@@H]9CSCCC(=O)O)O[C@@H]8CSCCC(=O)O)O[C@@H]7CSCCC(=O)O)O[C@@H]6CSCCC(=O)O)O[C@@H]5CSCCC(=O)O)O[C@@H]4CSCCC(=O)O)O[C@@H]3CSCCC(=O)O [SGM, sugammadex]	an interaction is observed	511	-3.177 kcal/mol	approximately 49 mmol/L	approximately 59 mmol/L	about 62 mmol/L	a haze appeared	≥ 2500					
CCC1=C[C@@H]2CN(C1)Cc1c([nH]c3ccccc13)[C@@](C(=O)OC)(c1cc3c(cc1OC)N(C)[C@H]1[C@@](O)(C(=O)OC)[C@H](OC(C)=O)[C@]4(CC)C=CCN5CC[C@]31[C@@H]54)C2 [vinorelbine, vinorelbine ditartrate salt hydrate]									causes cell mortality and destroys tight tissue junctions	loss of E-cadherin marking	insoluble	partially soluble	totally soluble
Sulfobutylether-gamma-CD [SBE-gamma-CD]	an interaction is observed	121	+514 cal/mol										
sulfobutylether-beta-cyclodextrin [SBE-beta-CD]	an interaction is observed	412	+2305 cal/mol	~58 mmol/L	~68 mmol/L	about 71 mmol/L	does not produce any precipitate						
